Measured values as given in ChEMBL document CHEMBL1201862, “PubChem BioAssay data set” (2004).
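Following 48 hours of exposure in 96-well plates, responses at five concentrations were used to interpolate endpoints linearly. The concentration for 50% growth inhibition is given as GI50.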 Calls of active or inactive are those of the source. Rule as the data show it: active = GI50 up to about 1.1 µM and inactive = higher.

What was measured:
Assay in all cases: NCI tumour cell line growth inhibition, 48 h
786-0 = test system: 786-0
A549 = test system: A549
ACHN = test system: ACHN
CAKI-1 = test system: CAKI-1
CCRF-CEM = test system: CCRF-CEM
COLO 205 = test system: COLO 205
DU-145 = test system: DU-145
EKVX = test system: EKVX
HCC 2998 = test system: HCC 2998
HCT-116 = test system: HCT-116
HL-60 = test system: HL-60
HOP-62 = test system: HOP-62
HOP-92 = test system: HOP-92
HT-29 = test system: HT-29
Hs-578T = test system: Hs-578T
IGROV-1 = test system: IGROV-1
K562 = test system: K562
KM12 = test system: KM12
LOX IMVI = test system: LOX IMVI
M14 = test system: M14
MCF7 = test system: MCF7
MDA-MB-231 = test system: MDA-MB-231
MDA-MB-435 = test system: MDA-MB-435
MDA-N = test system: MDA-N
MOLT-4 = test system: MOLT-4
Malme-3M = test system: Malme-3M
NCI-H226 = test system: NCI-H226
NCI-H23 = test system: NCI-H23
NCI-H460 = test system: NCI-H460
NCI-H522 = test system: NCI-H522
NCI/ADR-RES = test system: NCI/ADR-RES
OVCAR-3 = test system: OVCAR-3
OVCAR-4 = test system: OVCAR-4
OVCAR-5 = test system: OVCAR-5
OVCAR-8 = test system: OVCAR-8
PC-3 = test system: PC-3
RPMI-8226 = test system: RPMI-8226
RXF 393 = test system: RXF 393
SF-268 = test system: SF-268
SF-295 = test system: SF-295
SF-539 = test system: SF-539
SK-MEL-28 = test system: SK-MEL-28
SK-MEL-5 = test system: SK-MEL-5
SK-OV-3 = test system: SK-OV-3
SN12C = test system: SN12C
SNB-19 = test system: SNB-19
SNB-75 = test system: SNB-75
SR = test system: SR
SW-620 = test system: SW-620
T47D = test system: T47D
TK-10 = test system: TK-10
UACC-257 = test system: UACC-257
UACC-62 = test system: UACC-62
UO-31 = test system: UO-31

Measured: GI50

N#CC(c1cc2c(cc1Br)OCO2)N1CCOCC1 (centres undefined)
inactive: 786-0 36.4 µM | A549 > 100 µM | ACHN 62.8 µM | CAKI-1 > 100 µM | CCRF-CEM 7.26 µM | COLO 205 64.9 µM | DU-145 48.5 µM | EKVX 44.3 µM | HCC 2998 > 100 µM | HCT-116 6.5 µM | HL-60 3.33 µM | HOP-62 44 µM | HOP-92 > 100 µM | HT-29 42.5 µM | Hs-578T 25.6 µM | IGROV-1 58.1 µM | K562 3.32 µM | KM12 67.6 µM | LOX IMVI 24.5 µM | M14 20.6 µM | MCF7 42.3 µM | MDA-MB-231 43.7 µM | MDA-MB-435 4.05 µM | MDA-N 18.2 µM | MOLT-4 27.7 µM | Malme-3M 78.9 µM | NCI-H226 61.5 µM | NCI-H23 98.2 µM | NCI-H460 > 100 µM | NCI-H522 > 100 µM | NCI/ADR-RES 27.1 µM | OVCAR-3 30.1 µM | OVCAR-4 > 100 µM | OVCAR-5 > 100 µM | OVCAR-8 > 100 µM | PC-3 15.3 µM | RPMI-8226 20.3 µM | RXF 393 19.9 µM | SF-268 73.8 µM | SF-295 53 µM | SF-539 29.7 µM | SK-MEL-28 > 100 µM | SK-MEL-5 26.1 µM | SK-OV-3 73.3 µM | SN12C 56.2 µM | SNB-19 61.9 µM | SNB-75 30.1 µM | SR 4.82 µM | SW-620 9.04 µM | T47D > 100 µM | TK-10 90.8 µM | UACC-257 > 100 µM | UACC-62 21.1 µM | UO-31 71.4 µM
